Each structure is given as a SMILES string. Some results are limits rather than exact numbers.

This assay deals with T1, mutant CFTR (Homo sapiens, UniProt P13569, DEL508-508).
T1 construct: expressed in transfected cells
The experiment in a line: Fluorescence (HS-YFP) assay for CFTR activity, corrector assay. In kind it is cell-based. The settings on record: CFBE41o- and FRT cells with stable expression of mutant CFTR, 24 h compound treatment. How it is done:
Fluorescence Assay for CFTR Activity
Mutant CFTR activity was determined with the functional assay based on the halide-sensitive yellow fluorescent protein, HS-YFP (Galietta et al., FEBS Lett 499: 220-224, 2001). CFBE41o- and FRT cells with stable expression of mutant CFTR and HS-YFP were plated on clear-bottom 96-well black microplates (Code 3603, Corning Life Sciences) at a density of 50,000 cells/well and kept at 37° C. in 5% CO2 for 24 hours. For the corrector assay, cells were treated for further 24 hours with test compounds, vehicle (DMSO), or the positive control VX-809. After treatment, the culture medium was removed and cells in each well were stimulated for 30 min at 37° C. with 60 μL PBS (containing 137 mM NaCl, 2.7 mM KCl, 8.1 mM Na2HPO4, 1.5 mM KH2PO4, 1 mM CaCl2, and 0.5 mM MgCl2) plus forskolin (20 μM) and genistein (50 μM).
For determination of potentiator activity on G551D-CFTR or G1349D-CFTR, cells were directly stimulated with forskolin plus test compound without previous incubation at low temperature. At the time of assay, microplates carrying CFBE41o- or FRT cells were transferred to microplate readers (BMG Labtech) equipped with high-quality excitation (HQ500/20X: 500±10 nm) and emission (HQ535/30M: 535±15 nm) filters for YFP (Chroma Technology). The assay consisted of a continuous 14 s fluorescence reading with 2 s before and 12 s after injection of an iodide-containing solution (165 μL of a modified PBS containing I^− instead of Cl^−; final I^− concentration in the well: 100 mM). Data were normalized to the initial background-subtracted fluorescence. Enhanced CFTR activity, induced by correctors and/or potentiators, results in accelerated I^− influx that in turn causes faster HS-YFP quenching (Pedemonte et al., Mol Pharmacol 68:1736-1746, 2005; Pedemonte et al., J Clin Invest 115:2564-2571, […]). To determine fluorescence quenching rate associated with I^− influx, the […] 10 s of data for each well were fitted with an exponential function to extrapolate initial slope (dF/dt).
EC50 obtained are illustrated in table 1 wherein +: EC50>2 μM; ++: 1.0 μM<EC50<2 μM; +++: EC50<1 μM.

T1 sequence (P13569 with tags, fused parts or gaps DEL508-508): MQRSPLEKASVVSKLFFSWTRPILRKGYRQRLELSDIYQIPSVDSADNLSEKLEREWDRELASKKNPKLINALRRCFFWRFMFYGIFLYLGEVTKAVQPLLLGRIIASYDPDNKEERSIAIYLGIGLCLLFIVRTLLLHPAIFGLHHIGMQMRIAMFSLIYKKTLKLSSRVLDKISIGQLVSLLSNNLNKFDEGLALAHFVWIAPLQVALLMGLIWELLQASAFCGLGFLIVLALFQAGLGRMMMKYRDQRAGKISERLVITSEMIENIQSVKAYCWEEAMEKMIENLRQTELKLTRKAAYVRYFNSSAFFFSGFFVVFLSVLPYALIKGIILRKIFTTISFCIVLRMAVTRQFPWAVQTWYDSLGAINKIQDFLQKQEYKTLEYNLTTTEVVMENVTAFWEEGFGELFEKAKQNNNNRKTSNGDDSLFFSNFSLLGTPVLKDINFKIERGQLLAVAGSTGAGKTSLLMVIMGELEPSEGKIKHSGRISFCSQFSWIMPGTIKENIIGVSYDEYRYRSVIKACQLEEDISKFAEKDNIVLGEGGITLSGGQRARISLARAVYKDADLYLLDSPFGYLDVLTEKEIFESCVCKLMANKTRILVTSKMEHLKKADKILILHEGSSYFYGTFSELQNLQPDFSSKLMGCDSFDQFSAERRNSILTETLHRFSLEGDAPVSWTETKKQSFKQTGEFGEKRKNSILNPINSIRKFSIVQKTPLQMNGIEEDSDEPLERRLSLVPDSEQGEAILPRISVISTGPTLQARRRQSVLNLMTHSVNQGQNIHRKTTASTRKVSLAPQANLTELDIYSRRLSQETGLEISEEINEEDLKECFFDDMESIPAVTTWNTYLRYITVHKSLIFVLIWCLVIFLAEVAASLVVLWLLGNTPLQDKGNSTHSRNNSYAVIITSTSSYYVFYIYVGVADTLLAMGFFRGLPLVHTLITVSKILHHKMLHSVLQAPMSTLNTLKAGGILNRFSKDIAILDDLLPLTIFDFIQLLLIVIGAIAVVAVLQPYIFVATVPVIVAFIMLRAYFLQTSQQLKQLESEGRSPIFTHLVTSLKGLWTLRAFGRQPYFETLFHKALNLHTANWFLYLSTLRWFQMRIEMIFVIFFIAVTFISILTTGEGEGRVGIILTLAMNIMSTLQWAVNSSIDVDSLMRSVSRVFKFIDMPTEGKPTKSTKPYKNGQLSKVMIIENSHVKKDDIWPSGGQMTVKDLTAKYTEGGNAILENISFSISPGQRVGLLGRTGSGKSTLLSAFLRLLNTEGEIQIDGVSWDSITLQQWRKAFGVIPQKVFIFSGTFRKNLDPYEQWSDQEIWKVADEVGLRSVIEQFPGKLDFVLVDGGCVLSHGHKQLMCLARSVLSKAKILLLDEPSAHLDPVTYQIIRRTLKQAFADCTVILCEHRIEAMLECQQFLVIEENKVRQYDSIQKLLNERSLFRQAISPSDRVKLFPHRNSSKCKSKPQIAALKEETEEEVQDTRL

As for `Cc1c(Cl)c(C(F)(F)F)nn1-c1cccc(C(=O)Nc2cc3c(cc2C(=O)O)OCO3)c1` [Int-178, 6-[[3-[4-chloro-5-methyl-3-(trifluoromethyl)pyrazol-1-yl]benzoyl]amino]-1,3-benzodioxole-5-carboxylic acid], the half-maximal effective concentration (EC50) is above 2 µM.

As to `Cc1c(Cl)c(C(F)(F)F)nn1-c1cccc(C(=O)Nc2ccc3c(c2C=O)OCO3)c1` [Int-203, 3-[4-chloro-5-methyl-3-(trifluoromethyl)pyrazol-1-yl]-N-(4-formyl-1,3-benzodioxol-5-yl)benzamide], the EC50 was above 2 µM. As for `Cc1nn(-c2cccc(C(=O)N(c3ccc4c(c3)OCCO4)C(C)C)c2)c(C)c1Cl` [compound 003, 3-(4-Chloro-3,5-dimethyl-pyrazol-1-yl)-N-(2,3-dihydro-1,4-benzodioxin-6-yl)-N-isopropyl-benzamide], the EC50 was above 2 µM.

On to `CCN(C(=O)c1cccc(-n2nc(C)c(Cl)c2C)c1)c1ccc2c(c1)OCCO2` [compound 004, 3-(4-Chloro-3,5-dimethyl-pyrazol-1-yl)-N-(2,3-dihydro-1,4-benzodioxin-6-yl)-N-ethyl-benzamide], for which the half-maximal effective concentration (EC50) was below 1 µM. As for `Cc1nn(-c2cccc(C(=O)N(C)c3ccccc3)c2)c(C)c1Cl` [compound 007, 3-(4-Chloro-3,5-dimethyl-pyrazol-1-yl)-N-methyl-N-phenyl-benzamide], the EC50 is above 2 µM. `Cc1nn(-c2cccc(C(=O)N(C)c3ccc4c(c3)OC(F)(F)C(F)(F)O4)c2)c(C)c1Cl` [compound 008, 3-(4-Chloro-3,5-dimethyl-pyrazol-1-yl)-N-methyl-N-(2,2,3,3-tetrafluoro-1,4-benzodioxin-6-yl)benzamide]: the concentration for a half-maximal effect (EC50) is above 2 µM. Consider `CN(C(=O)c1cccc(-n2cccn2)c1)c1ccc2c(c1)OCCO2` [compound 010, N-(2,3-Dihydro-1,4-benzodioxin-6-yl)-N-methyl-3-pyrazol-1-yl-benzamide], for which the EC50 was above 2 µM.

For the compound `Cc1cc(C)n(-c2cccc(C(=O)N(C)c3ccc4c(c3)OCCO4)c2)n1` [compound 011, N-(2,3-Dihydro-1,4-benzodioxin-6-yl)-3-(3,5-dimethylpyrazol-1-yl)-N-methyl-benzamide], the EC50 was above 2 µM. As to `COc1ccc(N(C)C(=O)c2cccc(-n3nc(C)c(Cl)c3C)c2)cc1OC` [compound 014, 3-(4-Chloro-3,5-dimethyl-pyrazol-1-yl)-N-(3,4-dimethoxyphenyl)-N-methyl-benzamide], the EC50 was above 2 µM.

As to `Cc1nn(-c2cccc(C(=O)N(C)c3ccc4c(c3)OCO4)c2)c(C)c1Cl` [compound 015, N-(1,3-Benzodioxol-5-yl)-3-(4-chloro-3,5-dimethyl-pyrazol-1-yl)-N-methyl-benzamide], the EC50 is below 1 µM. For the compound `Cc1cc(C)n(-c2cccc(S(=O)(=O)N(C)c3ccc4c(c3)OCCO4)c2)n1` [compound 017, N-(2,3-dihydro-1,4-benzodioxin-6-yl)-3-(3,5-dimethylpyrazol-1-yl)-N-methyl-benzenesulfonamide], the half-maximal effective concentration (EC50) is above 2 µM.

With `CCN(C(=O)c1cccc(-n2nc(C)c(Cl)c2C)c1)c1ccc2c(c1)OC(F)(F)O2` [compound 019, 3-(4-Chloro-3,5-dimethyl-pyrazol-1-yl)-N-(2,2-difluoro-1,3-benzodioxol-5-yl)-N-ethyl-benzamide], the 50% effective concentration (EC50) lay within 1 to 2 µM. With `Cc1nn(-c2cccc(S(=O)(=O)N(C)c3ccc4c(c3)OCCO4)c2)c(C)c1Cl` [compound 020, 3-(4-chloro-3,5-dimethyl-pyrazol-1-yl)-N-(2,3-dihydro-1,4-benzodioxin-6-yl)-N-methyl-benzenesulfonamide], the EC50 was 1 to 2 µM. In the case of `COc1ccc(N(C)C(=O)c2cccc(-n3nc(C)c(Cl)c3C)c2)cn1` [compound 021, 3-(4-Chloro-3,5-dimethyl-pyrazol-1-yl)-N-(6-methoxy-3-pyridyl)-N-methyl-benzamide], the concentration for a half-maximal effect (EC50) is above 2 µM. The figure for `Cc1nn(-c2cccc(C(=O)N(C)c3ccc4c(c3)CCC4)c2)c(C)c1Cl` [compound 023, 3-(4-chloro-3,5-dimethyl-pyrazol-1-yl)-N-indan-5-yl-N-methyl-benzamide] is below 1 µM; for `Cc1nn(-c2cccc(C(=O)N(C)c3ccc4c(c3)ncn4C)c2)c(C)c1Cl` [compound 024, 3-(4-Chloro-3,5-dimethyl-pyrazol-1-yl)-N-methyl-N-(1-methylbenzimidazol-5-yl)benzamide] it is above 2 µM.

Consider `Cc1nc2cc(N(C)C(=O)c3cccc(-n4nc(C)c(Cl)c4C)c3)ccc2o1` [compound 025, 3-(4-Chloro-3,5-dimethyl-pyrazol-1-yl)-N-methyl-N-(2-methyl-1,3-benzoxazol-5-yl)benzamide], for which the 50% effective concentration (EC50) was above 2 µM.

Take `Cc1nn(-c2cccc(C(=O)N(C)c3cccc4c3OC(F)(F)O4)c2)c(C)c1Cl` [compound 026, 3-(4-Chloro-3,5-dimethyl-pyrazol-1-yl)-N-(2,2-difluoro-1,3-benzodioxol-4-yl)-N-methyl-benzamide]: the concentration giving a half-maximal response (EC50) was above 2 µM. For `Cc1nn(-c2cccc(C(=O)N(C)c3ccc4ocnc4c3)c2)c(C)c1Cl` [compound 029, N-(1,3-Benzoxazol-5-yl)-3-(4-chloro-3,5-dimethyl-pyrazol-1-yl)-N-methyl-benzamide], the half-maximal effective concentration (EC50) was above 2 µM. Regarding `Cc1nn(-c2cccc(C(=O)N(c3ccc4c(c3)OCCO4)C3CC3)c2)c(C)c1Cl` [compound 030, 3-(4-Chloro-3,5-dimethyl-pyrazol-1-yl)-N-cyclopropyl-N-(2,3-dihydro-1,4-benzodioxin-6-yl)benzamide], the EC50 was above 2 µM. Regarding `Cc1ccc(-n2nc(C)c(Cl)c2C)cc1C(=O)N(C)c1ccc2c(c1)OCCO2` [compound 031, 5-(4-chloro-3,5-dimethyl-pyrazol-1-yl)-N-(2,3-dihydro-1,4-benzodioxin-6-yl)-N, 2-dimethyl-benzamide], the EC50 was above 2 µM.

For the compound `Cc1nn(-c2cccc(C(=O)N(C)c3cc4c(cc3Cl)OCCO4)c2)c(C)c1Cl` [compound 032, N-(6-chloro-2,3-dihydro-1,4-benzodioxin-7-yl)-3-(4-chloro-3,5-dimethyl-pyrazol-1-yl)-N-methyl-benzamide], the EC50 is below 1 µM. Take `CN(C(=O)c1cccc(-n2cc(Cl)cn2)c1)c1ccc2c(c1)OCCO2` [compound 033, 3-(4-Chloropyrazol-1-yl)-N-(2,3-dihydro-1,4-benzodioxin-6-yl)-N-methyl-benzamide]: the EC50 was above 2 µM. The figure for `Cc1nn(-c2cccc(C(=O)N(C)c3ccc4c(c3)OC(C)(C)O4)c2)c(C)c1Cl` [compound 034, 3-(4-Chloro-3,5-dimethyl-pyrazol-1-yl)-N-(2,2-dimethyl-1,3-benzodioxol-5-yl)-N-methyl-benzamide] is above 2 µM.

For the compound `Cc1nn(-c2cccc(S(=O)(=O)N(C)c3ccc4c(c3)OC(F)(F)O4)c2)c(C)c1Cl` [compound 035, 3-(4-Chloro-3,5-dimethyl-pyrazol-1-yl)-N-(2,2-difluoro-1,3-benzodioxol-5-yl)-N-methyl-benzenesulfonamide], the EC50 is above 2 µM.

Consider `Cc1nn(-c2cccc(C(=O)N(C)c3ccc4c(c3)OCCN4)c2)c(C)c1Cl` [compound 036, 3-(4-Chloro-3,5-dimethyl-pyrazol-1-yl)-N-(3,4-dihydro-2H-1,4-benzoxazin-4-ium-7-yl)-N-methyl-benzamide 2,2,2-trifluoroacetate], for which the 50% effective concentration (EC50) is above 2 µM. The value for `Cc1nn(-c2cccc(C(=O)N(C)c3ccc4c(c3)OCCO4)c2)c(C)c1C(C)(C)C` [compound 037, 3-(4-tert-Butyl-3,5-dimethyl-pyrazol-1-yl)-N-(2,3-dihydro-1,4-benzodioxin-6-yl)-N-methyl-benzamide] was 1 to 2 µM.

For `Cc1nn(-c2cccc(C(=O)N(C)c3ccc4c(c3)NCCO4)c2)c(C)c1Cl` [compound 038, 3-(4-Chloro-3,5-dimethyl-pyrazol-1-yl)-N-(3,4-dihydro-2H-1,4-benzoxazin-4-ium-6-yl)-N-methyl-benzamide 2,2,2-trifluoroacetate], the 50% effective concentration (EC50) was above 2 µM. In the case of `[2H]C([2H])([2H])N(C(=O)c1cccc(-n2nc(C)c(Cl)c2C)c1)c1ccc2c(c1)OC(F)(F)O2` [compound 039, 3-(4-Chloro-3,5-dimethyl-pyrazol-1-yl)-N-(2,2-difluoro-1,3-benzodioxol-5-yl)-N-(trideuteriomethyl) benzamide], the EC50 is 1 to 2 µM. As to `Cc1cc2c(cc1N(C)C(=O)c1cccc(-n3nc(C)c(Cl)c3C)c1)OCO2` [compound 042, 3-(4-chloro-3,5-dimethyl-pyrazol-1-yl)-N-methyl-N-(6-methyl-1,3-benzodioxol-5-yl)benzamide], the 50% effective concentration (EC50) lay within 1 to 2 µM.

These data come from patent publication US12492193B2, “Pyrazole derivatives for the treatment of cystic fibrosis” (Fondazione Istituto Italiano Di Tecnologia, priority 2017, dated 2025).
